Measured values from PubChem BioAssay (NCI).
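In this assay, cells in 96-well plates receive the compound at five concentrations for 48 hours. Endpoints are linearly interpolated between the surrounding concentrations. GI50: concentration for 50% inhibition of growth. Definition used: TGI = concentration required for complete inhibition of growth.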

Experiments:
Assay in all cases: NCI anticancer screen, dose series, 48 h
HT29 colon = tested on: HT29 colon
OVCAR-8 ovarian = tested on: OVCAR-8 ovarian
HOP-62 NSCLC = tested on: HOP-62 NSCLC
SF-539 CNS = tested on: SF-539 CNS
CAKI-1 renal = tested on: CAKI-1 renal
OVCAR-5 ovarian = tested on: OVCAR-5 ovarian
SF-268 CNS = tested on: SF-268 CNS
HOP-92 NSCLC = tested on: HOP-92 NSCLC
TK-10 renal = tested on: TK-10 renal
MALME-3M melanoma = tested on: MALME-3M melanoma

Row | SMILES | TGI (HT29 colon) | TGI (OVCAR-8 ovarian) | TGI (HOP-62 NSCLC) | TGI (SF-539 CNS) | TGI (CAKI-1 renal) | TGI (OVCAR-5 ovarian) | TGI (SF-268 CNS) | TGI (HOP-92 NSCLC) | TGI (TK-10 renal) | TGI (MALME-3M melanoma) | GI50 (TK-10 renal) | GI50 (HT29 colon) | GI50 (OVCAR-8 ovarian) | GI50 (HOP-62 NSCLC) | GI50 (SF-539 CNS) | GI50 (CAKI-1 renal) | GI50 (OVCAR-5 ovarian) | GI50 (SF-268 CNS) | GI50 (HOP-92 NSCLC) | GI50 (MALME-3M melanoma)
1 | C/C(=N\NS(=O)(=O)c1ccc(C)cc1)c1ccc[n+]([O-])n1 | > 100 µM | > 100 µM | > 100 µM | > 100 µM | 85.3 µM | > 100 µM | > 100 µM | > 100 µM |  |  |  |  |  |  |  |  |  |  |  | 
2 | S=C(Nc1ccccc1)Nc1[nH]c(=S)sc1-c1nc2ccccc2[nH]1 | > 100 µM | > 100 µM | 66.8 µM | 74.3 µM | > 100 µM | > 100 µM | > 100 µM |  | > 100 µM | > 100 µM |  |  |  |  |  |  |  |  |  | 
3 | COc1ccc(C[C@H]2C[C@@H](O)[C@@H](C)C/C=C/Cc3cccc(O)c3C(=O)O2)cn1 | > 100 µM | > 100 µM | 40.2 µM | 37.8 µM | 54.6 µM | 37.2 µM | 53.5 µM |  | 72.3 µM |  | 24.5 µM | 31 µM | 29.4 µM | 18.6 µM | 17.9 µM | 21.8 µM | 19 µM | 15.9 µM |  | 
4 | CCC1OCCN1C(C)C (stereo not drawn) |  | > 100 µM |  | > 100 µM |  | > 100 µM | > 100 µM |  | > 100 µM | > 100 µM |  |  |  |  |  |  |  |  |  | 
5 | Cc1nnc2n1N=C(CC(=O)c1ccc(O)cc1O)CN2N | > 100 µM |  | > 100 µM | > 100 µM | > 100 µM | > 100 µM | > 100 µM |  | > 100 µM | > 100 µM |  |  |  |  |  |  |  |  |  | 
6 | CCN(CC)CCOc1ccc(/C=C2\C[C@H]3[C@@H]4CC=C5C[C@@H](OC(C)=O)CC[C@]5(C)[C@H]4CC[C@]3(C)[C@H]2OC(C)=O)cc1OC | > 50 µM | 22.7 µM | 19.5 µM | 16 µM | 18.6 µM | 18 µM | 19.8 µM | 14.7 µM | 20.5 µM |  | 9.67 µM | 14.8 µM | 11.4 µM | 10.1 µM | 8.59 µM | 9.21 µM | 9.3 µM | 8.34 µM | 5.95 µM | 
7 | O=C(O)c1cc(Cl)cc(NC(=O)C(Cl)Cl)c1Cl | > 100 µM | > 100 µM | > 100 µM | > 100 µM | > 100 µM |  | > 100 µM |  | > 100 µM | > 100 µM |  |  |  |  |  |  |  |  |  | 
8 | COc1ccc2c(c1O)[C@@]13C=C(O)C(=O)C=C1[C@@H](C2)N(C)CC3 | > 100 µM | > 100 µM | > 100 µM |  | > 100 µM | > 100 µM | > 100 µM | > 100 µM | > 100 µM | > 100 µM |  |  |  |  |  |  |  |  |  | 
9 | Cc1c(C(C)C)cc(OCCO)cc1C(C)C | 81.1 µM | > 100 µM | > 100 µM | > 100 µM | > 100 µM | > 100 µM | > 100 µM | 57 µM | > 100 µM |  |  |  |  |  |  |  |  |  |  | 
10 | Oc1cccc(-c2nc3ccccc3s2)c1 | 42.9 µM | > 100 µM | > 100 µM | > 100 µM | 66 µM | 51.5 µM | 68.7 µM | > 100 µM |  | 31.1 µM |  |  |  |  |  |  |  |  |  | 
11 | COc1cc(C(c2cc3c(cc2O)OCO3)N2CCCC2)cc(OC)c1OC (stereo not drawn) | 28 µM | 34 µM | 97.5 µM |  | 27 µM | 89.7 µM |  | 20 µM | 37.5 µM | 20.7 µM |  |  |  |  |  |  |  |  |  | 
12 | COC(=O)c1c(C)oc2ccc(OC(C)=O)cc12 | > 100 µM | > 100 µM | > 100 µM | > 100 µM | > 100 µM | > 100 µM | > 100 µM |  | > 100 µM | > 100 µM |  |  |  |  |  |  |  |  |  | 
13 | COc1cc2c3c(c1OC)-c1ccccc1C(C(OC(C)=O)c1ccccc1)C3N(C)CC2 (stereo not drawn) | > 100 µM | > 100 µM |  | > 100 µM | > 100 µM | > 100 µM | > 100 µM | > 100 µM | > 100 µM | > 100 µM |  |  |  |  |  |  |  |  |  | 
14 | COC(=O)/C(=N\NC(=O)c1ccccc1O)C(C#N)c1ccc(Cl)cc1 (stereo not drawn) | > 100 µM | > 100 µM | 95.8 µM | > 100 µM |  | 90.3 µM | > 100 µM | > 100 µM | > 100 µM | > 100 µM |  |  |  |  |  |  |  |  |  | 
15 | CCOC(=O)/C=C1\Nc2ccccc2C(c2ccccc2)=NC1OC(C)=O (stereo not drawn) | > 100 µM | > 100 µM | > 100 µM | > 100 µM | > 100 µM |  | > 100 µM | > 100 µM |  | > 100 µM |  |  |  |  |  |  |  |  |  | 
16 | COc1ccc2cccc(C(=N)c3ccc(C)c4c3CCC4)c2c1 | 15 µM | 24 µM | 20 µM |  | 16.1 µM | 18.9 µM | 31.8 µM |  | 24.2 µM | 18.1 µM |  |  |  |  |  |  |  |  |  | 
17 | CC(=O)NC1C(OCc2ccccc2)OC(COC(=O)CCCCCCCCCCNC(=O)c2cccc3c(=O)c4ccccc4[nH]c23)C(O)C1OC(C)C(=O)NC(C)C(=O)NC(CCC(N)=O)C(N)=O (stereo not drawn) | > 100 µM | > 100 µM | > 100 µM | > 100 µM | > 100 µM | > 100 µM | > 100 µM |  | > 100 µM |  |  |  |  |  |  |  |  |  |  | 
18 | CCOC(=O)CCC1(C(=O)OC)CCCC1=O (stereo not drawn) | > 100 µM | > 100 µM | > 100 µM | > 100 µM |  | > 100 µM | > 100 µM | > 100 µM | > 100 µM | > 100 µM |  |  |  |  |  |  |  |  |  | 
19 | CC(=O)[CH-]C(=O)c1ccccc1.CC(=O)[CH-]C(=O)c1ccccc1.[O]=[U+2]=[O] | 57.4 µM | > 100 µM | 66.2 µM |  | > 100 µM | > 100 µM | > 100 µM | > 100 µM | > 100 µM | 54.6 µM | 37.8 µM | 23.4 µM | 35 µM | 23.8 µM |  | 39.2 µM | > 100 µM | 58.2 µM | 39.9 µM | 21.8 µM
20 | N#Cc1c2c(c(N=[N+]=[N-])n3c1nc1ccccc13)CCCC2 | 3.77 µM | 3.09 µM | 31 µM | 3.66 µM | 6.39 µM | 16.8 µM | 16 µM |  | 5.76 µM | 5.96 µM |  |  |  |  |  |  |  |  |  | 
21 | CC(C)c1ccc(/C=C(\NC(=O)c2ccccc2)c2nc3ccccc3[nH]2)cc1 | > 100 µM | 86.9 µM |  | > 100 µM | > 100 µM | > 100 µM | > 100 µM | > 100 µM | > 100 µM | > 100 µM |  |  |  |  |  |  |  |  |  | 
22 | O=C(OCc1ccccc1CN1CCOCC1)c1ccc(Br)cc1 | 44.2 µM | > 100 µM | > 100 µM | > 100 µM |  | > 100 µM | > 100 µM | > 100 µM | > 100 µM | 60.4 µM |  |  |  |  |  |  |  |  |  | 
